The test system of assay [1] is sleep/wake stages. As to the kind of experiment: Polysomnography in telemetered Sprague-Dawley rats. In kind it is in vivo, rat. On the procedure: MK-1064 promoted both REM and NREM sleep in telemetered rats in a time-of-day-dependent manner.
Figure 2 MK-1064 dose-dependently promotes both NREM and REM sleep during the active phase in rats. Mean time in active wake, light sleep (LS), SWS, and REM sleep in adult Sprague-Dawley rats monitored for 2 hours post-dose. MK-1064 (5, 10, or 20 mg/kg) or vehicle (20% vitamin E TPGS, orally) was administered in a balanced crossover design such that each animal received drug and vehicle treatments (7 consecutive days). […] Mean within-subject change relative to vehicle ± SEM is shown (*, ***p < 0.05 < 0.001, respectively; one sample t-test for repeated measures compared with vehicle).
The mean time spent in sleep stages was determined in radio-telemetry–implanted mice, rats, and dogs, as described previously. Continuous PSG recordings were performed following oral MK-1064 or vehicle (20% vitamin E d-alpha tocopheryl polyethylene glycol 1000 succinate [TPGS]) administration. In rodents, electrocorticogram (ECoG) and electromyogram (EMG) and locomotor activity measured via radio-telemetry were scored in 10 second epochs to define light sleep (LS; no movement, moderate EMG tone, theta with <50% delta ECoG [0.5–4 Hz]), slow wave sleep (SWS; no gross movement, reduced EMG, >50% delta ECoG) and rapid eye movement sleep (REM; no movement, little to no EMG activity, primarily theta ECoG [4–7 Hz] activity)[42]. Scored data were then grouped and compiled according to condition (vehicle or compound treatment) averaged over the indicated times (30 minutes or 2 hours) and analyzed statistically as previously described[1][14][40][42] (see below). Canine sleep was scored similarly except that electrooculogram (EOG) recordings were used to define and distinguish REM sleep (high frequency EOG, no locomotor, little to no EMG activity, theta ECoG) from non-REM I (NREM I; little to no EOG activity, no movement, moderate EMG tone, <50% delta ECoG) and NREM II sleep (little to no EOG activity, no gross movement, reduced EMG, >50% delta ECoG), and analyzed as described previously.
In adult male Sprague-Dawley rats (600 g, Taconic Farms, Germantown, NY), MK-1064 (5, 10, or 20 mg/kg) or vehicle was administered orally in a balanced crossover design such that each subject received drug and vehicle treatments (7 consecutive days). […] Data were analyzed using within-subject ANOVA to determine main effects and one sample t-test to compare with vehicle.

Assay [2] relates to sleep/wake stages. As to the kind of experiment: Polysomnography in telemetered dogs. In kind it is in vivo, dog.
Procedure: The mean time spent in sleep stages was determined in radio-telemetry–implanted mice, rats, and dogs, as described previously[1][14][40][42]. Continuous PSG recordings were performed following oral MK-1064 or vehicle (20% vitamin E d-alpha tocopheryl polyethylene glycol 1000 succinate [TPGS]) administration. In rodents, electrocorticogram (ECoG) and electromyogram (EMG) and locomotor activity measured via radio-telemetry were scored in 10 second epochs to define light sleep (LS; no movement, moderate EMG tone, theta with <50% delta ECoG [0.5–4 Hz]), slow wave sleep (SWS; no gross movement, reduced EMG, >50% delta ECoG) and rapid eye movement sleep (REM; no movement, little to no EMG activity, primarily theta ECoG [4–7 Hz] activity)[42]. Scored data were then grouped and compiled according to condition (vehicle or compound treatment) averaged over the indicated times (30 minutes or 2 hours) and analyzed statistically as previously described[1][14][40][42] […]
Mean times in active wake, NREM I, NREM II, and REM sleep were monitored continuously. Vehicle and compound treatment conditions were consolidated into 24-hour periods for each animal, and the mean time spent in each sleep stage for the 2 hours following treatment was determined and significance determined by t-test.
A further assay deals with T1, OX2R (Homo sapiens, UniProt O43614).
T1 sequence (O43614 1-444): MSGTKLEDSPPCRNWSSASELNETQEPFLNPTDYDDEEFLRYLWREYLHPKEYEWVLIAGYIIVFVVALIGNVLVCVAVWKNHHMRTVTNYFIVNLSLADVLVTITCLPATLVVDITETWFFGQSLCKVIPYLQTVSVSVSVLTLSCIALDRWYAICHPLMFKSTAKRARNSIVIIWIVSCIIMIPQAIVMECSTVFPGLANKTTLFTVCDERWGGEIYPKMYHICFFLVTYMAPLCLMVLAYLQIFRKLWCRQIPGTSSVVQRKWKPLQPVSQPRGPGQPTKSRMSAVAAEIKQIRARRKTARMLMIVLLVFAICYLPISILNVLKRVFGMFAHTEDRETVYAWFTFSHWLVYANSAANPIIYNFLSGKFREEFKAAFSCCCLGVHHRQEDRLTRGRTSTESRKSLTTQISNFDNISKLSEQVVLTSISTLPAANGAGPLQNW
Format: in vivo, transgenic rats expressing human Hcrtr2. Details: from tissue; host or cells: brain tissue lysate of male transgenic rats expressing human Hcrtr2 cDNA under the rat enolase promoter. From the text:
OX2R occupancy in transgenic rats expressing human Hcrtr2 cDNA via the rat enolase promoter in radioligand-binding displacement assays have been described previously. […] Normalized curves where the maximum occupancy value was defined as 100% relative to maximal observed plasma were constructed by fitting data to a one-site binding (hyperbola) curve (GraphPad Prism® v. 6.04, San Diego, CA, USA).

Setting [3] is: rats, 2 hours following treatment vs vehicle.

Values joined by “and” are separate entries in the source; they are usually repeats but may differ in a detail not shown here. Equal values may be shown once.

Data on one molecule can be found in article PMC4891657, “Orexin 2 Receptor Antagonism is Sufficient to Promote NREM and REM Sleep from Mouse to Man” (Scientific Reports, 2016).

On to `COc1ccc(CNC(=O)c2cc(-c3cncc(Cl)c3)cnc2-c2ccccn2)nc1OC` [MK-1064, 5″-chloro-N-[(5,6-dimethoxypyridin-2-yl)methyl]-2,2′:5′, 3″-terpyridine-3′-carbo xamide], for which the “sleep stage changes, late active phase administration” value in the assay with sleep/wake stages [1] (ZT 23:00, 1 hour prior to inactive period, 20 mg/kg oral) is reported as “only SWS reached significance”. Moreover, the “active wake during the 2 hours following administration” value in the assay with sleep/wake stages [1] (mid-active phase (ZT 17:00), 5, 10 and 20 mg/kg oral, 20 mg/kg significant p < 0.05) is “dose dependently attenuated active wake”. For the same molecule, the “SWS during the 2 hours following administration” value in the assay on sleep/wake stages [1] (mid-active phase, 20 mg/kg oral) is reported as “increases in SWS”. In addition, the “REM sleep during the 2 hours following administration” value with sleep/wake stages [1] (mid-active phase, 10 and 20 mg/kg oral) is listed as “increases in REM sleep”. The “active wake (with increases in NREM I, NREM II and REM sleep)” value in the assay with sleep/wake stages [2] (1 mg/kg oral, 1 hour following administration vs vehicle) is “Significant active wake reductions”. The “REM sleep in the hour following administration” value in the assay with sleep/wake stages [2] (20 mg/kg oral, vs vehicle, increased at several later time points) was “not significantly increased”. Moreover, the “OX2R occupancy at which significant reductions in active wake were observed” value on OX2R (in vivo) was 94% and 97%. On OX2R (setting [3]), the “OX2R occupancy at which changes in REM sleep occurred” value is 94%, the “OX2R occupancy at which no significant reduction in active wake was observed” value worked out at 89% and the “OX2R occupancy at which significant SWS changes were induced” value was determined as 97%.
